In patent publication US20070161697A1, “Hydrazide type compounds and the use thereof in pharmaceutical compositions for the treatment of cardiovascular diseases” (priority 2004, published 2007):
Like-named read-outs stand apart in the source and are kept apart here.

Columns and labels:
ApoE −/− mice [1] = experiment: Total cholesterol in plasma, ApoE −/− mice on dietary regimen rich in cholesterol; assay type: in vivo; settings: for Plasma total cholesterol level: untreated 7.27 ± 0.55
Description: (§1) Firstly, mice devoid of the coding gene for Apo lipoprotein E (ApoE −/−) have been used. These mice represent a model of choice of studying early atherosclerosis and development of a plaque rich in foamy macrophages. Male C57BL/6J mice homozygote for deletion of the ApoE gene were subjected to a normal dietary regimen until the age of eight weeks. These mice (n=8 per group) subsequently received ad libitum and for 12 weeks either a dietary regimen not enriched with cholesterol or fat, or an enriched regimen, containing 1.5 g/kg of cholesterol and 200 g/kg of fat of milk origin. The untreated mice underwent daily intraperitoneal injections of a solution containing DMSO at 10%. […] Following the blood sample for the biochemical analyses, the mice were killed.
The circulating total cholesterol may be measured by enzymatic assay using the commercially available kit. This assay may for example use an enzymatic sequence of the cholesterol-esterase/cholesteroloxydase/chromogenic peroxidase type. In summary, the total esterified cholesterol is transformed into free cholesterol and fatty acid by the action of cholesterol esterase. The non-esterified cholesterol is subsequently measured by the formation of quinoeimine in the presence of cholesterol oxidase and peroxidise. The intensity of the quinoneimine coloration is proportional to the quantity of cholesterol present in the sample.
When mice are subjected to a dietary regimen rich in cholesterol, the total cholesterol level decreases from a value of 7.27±0.55 g/L to a value of 6.86±0.65 g/L, i.e. a variation of 5.6%. This effect observed is dependent on the dose of CGP 02-01.

THP1 cells = experiment: Inhibition of binding and accumulation of cyanine 3-marked LDLox as lipid vesicles in differentiated THP1 macrophage cells; assay type: cell-based
Method: The culture medium may be replaced every two days.
In the present example, the accumulation of lipid vesicles within the cell was measured using THP1 cells following fixation with paraformaldehyde in PBS medium using a solution containing a fluorescent marker of the Oil Red O type in order to visualise the vesicles. The image of the cells rich in vesicles was analysed using a microscope ecqluipped with a CCD camera and software necessary for the analysis.
The medium was replaced every 2-3 days.
The differentiated THP-1 were subsequently incubated with LDLox coupled with cyanine-3 (1.5 μg/ml) in the presence or absence of the molecule CGP02-01 (concentrations of between 10^−5M and 3.1.6 10^−10M) for 24 hours at 37° C., 5% CO2. […] Each image was analysed and quantified with the MetaMorph software (Universal Imaging).

ApoE −/− mice [2] = experiment: Analysis of coronary ischaemia in ApoE −/− mice; assay type: in vivo; settings: injected; normal or cholesterol-rich regimen; FIG. 15
Description: (§2) Firstly, mice devoid of the coding gene for Apo lipoprotein E (ApoE −/−) have been used. These mice represent a model of choice of studying early atherosclerosis and development of a plaque rich in foamy macrophages. Male C57BL/6J mice homozygote for deletion of the ApoE gene were subjected to a normal dietary regimen until the age of eight weeks. These mice (n=8 per group) subsequently received ad libitum and for 12 weeks either a dietary regimen not enriched with cholesterol or fat, or an enriched regimen, containing 1.5 g/kg of cholesterol and 200 g/kg of fat of milk origin. The untreated mice underwent daily intraperitoneal injections of a solution containing DMSO at 10%. The treated mice received by intraperitoneal injection the same solution containing 2 or 20 μg (i.e. 0.1 mg/kg/day or 1 mg/kg/day) of the compound CGP 02-01. Following the blood sample for the biochemical analyses, the mice were killed.
After killing the ApoE −/− mice subjected to a normal dietary regimen or a dietary regimen rich in cholesterol, the hearts of these animals are observed macroscopically. The rate of ischaemic lesions is observed (FIG. 15) and quantified by the presence or absence of lesions (FIG. 16).

Wistar rats [3] = experiment: Insulin in plasma, rats on dietary regimen rich in fructose; assay type: in vivo; settings: 50 mg/kg oral
Method: (§3) Secondly, the activity of the compound CGP 02-01 was studied using a reference rat-fructose model. Groups of Wistar rats (n=12) were subjected for 3 weeks to a dietary regimen containing […] of fructose. […] Groups of rats subsequently received by forced feeding 50 mg/kg of the compound CGP 02-01 dissolved in a 2% tween solution prepared in methylcellulose. The blood samples for the biochemical analyses were performed after 1, 2 and 3 weeks. Independent groups of rats wee treated under the same conditions with metformin hydrochloride at a dose of 50 mg/kg. The metformin served as a reference in this metabolic syndrome model. Assay of insulin in plasma may be performed by radioimmunological assay using commercially available kits comprising specific anti-insulin antibodies of mice or rats. One may for example use the rat/mouse ELISA kits, Linco research (ref. EZRMI-13K).

ApoE −/− mice [4] = experiment: HDL level in plasma, ApoE −/− mice on regimen rich in cholesterol; assay type: in vivo
Description: as §1
The plasma HDL level is measured by tried and trusted commercial methods which use high density lipoprotein separation reagents and by measurement of the cholesterol level associated with these high molecular weight lipoproteins (Biomérieux kit ref. 61533 for example).

Wistar rats [5] = experiment: Plasma glucose level (glycaemia) in rats on fructose-rich regimen; assay type: in vivo; settings: oral, 21 days of treatment, FIG. 17
Method: as §3, with “model.” for “model. Assay of insulin in plasma may be performed by radioimmunological assay using commercially available kits comprising specific anti-insulin antibodies of mice or rats. One may for example use the rat/mouse ELISA kits, Linco research (ref. EZRMI-13K).”

ApoE −/− mice [6] = experiment: Free cholesterol in plasma, ApoE −/− mice on normal non-enriched dietary regimen; assay type: in vivo; settings: 1 mg/kg; 3 months; p<0.05
Description: as §2
Measurement of free cholesterol may be performed by an enzymatic method. The free cholesterol is oxidised by cholesterol oxidase into Delta 4 cholestenon and simultaneously produces hydrogen peroxide. The hydrogen peroxide subsequently allows oxidative condensation of the DHESA and the aminoantipyrinre, producing a blue colour. The quantity of free cholesterol is subsequently measured by the absorbance of the blue colour. […]

Compound: COc1cc(O)c(/C=N/NC(=O)c2cc3ccccc3s2)c(OC)c1 [CGP02-01, N′-[(1E)-(2-hydroxy-4,6-dimethoxyphenyl)methylene]-1-benzothiophene-2-carbohydrazide]
- Plasma total cholesterol level (ApoE −/− mice [1]; 0.4 mg/kg): 8.08 ± 0.62 g/L
- Variation of total cholesterol level vs untreated (ApoE −/− mice [1]; 1 mg/kg, 3 months): 5.6%
- Plasma total cholesterol level (ApoE −/− mice [1]; 1 mg/kg, 3 months): 6.86 ± 0.65 g/L
- Inhibition of the accumulation of lipid vesicles (THP1 cells; 1 μM, differentiated THP1 macrophage cells): major inhibition
- inhibition at 2.5 µM (THP1 cells; Homo sapiens, THP-1, cells expressing the scavenger CD36, lipoproteins marked with cyanine 3, read-out: Inhibition of accumulation of LDLox in (%)): 76%
- IC50 (THP1 cells; Homo sapiens, THP-1, lipoproteins marked with Cyanine 3, dose response curve, FIG. 1, read-out: CI50, accumulation of lipid vesicles in macrophage cell): 500 nM
- inhibition at 2.5 µM (THP1 cells; Homo sapiens, THP-1 cells, 24 hours, read-out: Inhibition at 2.5 μM on THP-1 cells (24 hours)): 76%
- Coronary ischaemic (cardiac) lesions (ApoE −/− mice [2]): considerably reduced
- Variation (reduction) of insulin level (Wistar rats [3]): 11.3%
- Plasma insulin level (Wistar rats [3]; 3 weeks, control 1.85±0.04): 1.64 ± 0.03 ng/mL
- Plasma HDL level (ApoE −/− mice [4]; 0.1 mg/kg, cholesterol-rich regimen, untreated 0.11 ± 0.05): 0.15 ± 0.06 g/L
- Plasma HDL level (ApoE −/− mice [4]; 1 mg/kg, cholesterol-rich regimen, untreated 0.11 ± 0.05): 0.15 ± 0.05 g/L
- Variation of plasma HDL level (ApoE −/− mice [4]; regimen rich in cholesterol and fatty acid): 38.2%
- Plasma HDL level (ApoE −/− mice [4]; regimen rich in cholesterol and fatty acid, dose not stated, control 0.11±0.005): 0.15 ± 0.005 g/L
- Increase in glycaemia (Wistar rats [5]): stabilises this increase in glycaemia
- Effect on plasma free cholesterol variation vs untreated (ApoE −/− mice [6]): 22.7%
